Reference: paper PMC9415509, “Pro-Apoptotic Antitumoral Effect of Novel Acridine-Core Naphthoquinone Compounds against Oral Squamous Cell Carcinoma” (Molecules, 2022)

Assays:
[1] = tested on: Primary normal human gingival fibroblasts; experiment: MTT cell viability assay, normal fibroblasts; type: cell-based; details: Homo sapiens, Fibroblast; primary gingival fibroblasts, 48 h, MTT; read-out: Primary Gingival Fibroblast IC50
Protocol: (§1) Cells and reagents. Human SCC-4, SCC-9, and SCC-25 cells, derived from a human oral tongue SCC (squamous cell carcinoma) were obtained from the ATCC (CRL-1624, CRL-1629, and CRL-1628, respectively) and maintained in 1:1 DMEM/F12 (Dulbecco’s modified Eagle medium and Ham’s F12 medium; Gibco (Thermo Fisher, Waltham, MA, USA)) supplemented with 10% (v/v) FBS (fetal bovine serum; Invitrogen, Thermo Fisher, Waltham, MA, USA) and 400 ng/mL hydrocortisone (Sigma-Aldrich Co., St. Louis, MO, USA). Primary normal human gingival fibroblasts were obtained from the ATCC (PCS-201-018) and maintained in DMEM supplemented with 10% (v/v) FBS and were used in a maximum of six passages. The cells were grown in a humidified environment containing 5% CO2 at 37 °C. […] Carboplatin stock was prepared in water (Fauldcarbo®; LibbsFarmacêutica, São Paulo, SP, Brazil) and was used as a standard anticancer compound.
(§2) Cell viability assay (cytotoxicity) and compound stability assay. The viability of SCC cell lines and primary human fibroblast cells was evaluated using the MTT assay as in [48]. Briefly, the cells were grown in triplicates in 96-well plates (5 × 10^3 cells/well) until confluence. Then, the medium was removed, fresh medium was added, and the cells were returned to the incubator in the presence of different compounds. DMSO at the same concentrations was used as a 100% cell viability control. After 48 h, the cells were incubated with 5 mg/mL MTT reagent (3-(4,5-dimethyl-2-thiazolyl)-2,5-diphenyl-2-H-tetrazolium bromide) (Sigma-Aldrich Co., St. Louis, MO, USA) for 3.5 h. After that, formazan crystals were dissolved in MTT solvent solution (DMSO/methanol 1:1 v/v) and the absorbance at 560 nm was evaluated using an EPOCH microplate spectrophotometer (BioTek Instruments, Winooski, VT, USA) with the background absorbance at 670 nm subtracted.
(§3) Statistical analysis, IC50 calculation. The data are presented as means ±\SD. IC50 values for the MTT assays were obtained by nonlinear regression using the […] 5.0 program (Intuitive Software for Science, San Diego, CA, USA) from at least three independent experiments. A dose–response (inhibitor) vs. response curve using the least squares method was used to determine the IC50, SD, and R^2 of the data. The selectivity index was calculated as SI = IC50 of the compound in normal oral fibroblast cells/IC50 of the same compound for each oral cancer cell line (SCC-4, SCC-9, and SCC-25) and the mean was calculated when indicated.

[2] = MTT cell viability assay, normal fibroblasts; type: cell-based, human; details: human, primary normal human gingival fibroblasts (ATCC PCS-201-018)
Protocol: as §1, §2, §3

CC1(C)CC(=O)C2=C(C1)NC1=C(C(=O)c3ccccc3C1=O)C2c1ccc(Cl)cc1Cl (centres unmarked) [4e, 12-(2,4-dichlorophenyl)-3,3-dimethyl-3,4-dihydrobenzo[b]acridine-1,6,11(2H,5H,12H)-trione]
IC50 [1]: 88 µM | viability at 48 h [2]: > 75%
